Source: US6960321B1, “Sterilization of fire sprinkler systems” (priority 1999, dated 2005)

Experiments:
Low Nutrient Bacteria = assay: MICkit microbiological testing of pipe water and scrapings, low nutrient bacteria; assay type: cell-based
Protocol: (§1) One end cap of the pipe was removed and the contaminated water poured out of the pipe and a pre-sterilization sample of the water and scrapings from the interior pipe wall were taken under sterile conditions for microbiological testing employing a MICkit™ supplied by Bioindustrial Technologies, Inc., Georgetown, Tex. The microbiological samples were incubated for three weeks at 35° C. and observed for microbiological growth.
(§2) Steam was then injected into the test pipe by opening the ball valve slowly with the steam pressure at 30 lbs pressure (135° C.). The temperature at the end of the test pipe rapidly rose to 94° C. and then appeared to remain nearly constant. The ball valve was then closed and the pipe cooled to room temperature. The condensate water and scrapings from the interior of the test pipe were collected by removal of the pipe from the adapter under sterile conditions. The samples so collected were microbiologically tested as above.
(§3) The end cap was then replaced with a ball valve and the steam sterilization was repeated. The ball valve at the end of the pipe was opened slightly to allow condensate and live steam to escape. The temperature at the end of the pipe rapidly rose to 110° C. The test was terminated by closing the ball valves and allowing the pipe to cool to room temperature. The pipe was again sampled for microbiological testing as above.
(§4) Microbiologically contaminated water was obtained from a “dead end” water feed-line to a fire protection system and was assayed microbiologically using the MICkit™ giving the following results after only 2 days of incubation at 35° C.:
(§5) The steam was allowed to slowly enter the pipe by regulating the input ball valve with the outlet ball valve open. Steam flowed through the pipe, heating it rapidly to near 100° C. The outlet ball valve was then nearly closed allowing the steam pressure in the pipe to increase. The temperature at the end of the pipe reached 135° C. and was kept there for five minutes. The inlet and outlet ball valves were closed and the pipe with the valves closed was removed and cooled in a stream of water. A small amount of sterile water (autoclaved at 121° C. for 15 minutes) was added to the sterilized pipe and the pipe raised, lowered and rotated to rinse the inside of the pipe system. The pipe was then opened and the water and scrapings from the side of the pipe were taken using sterile techniques for microbiological analysis.
(§6) The drained pipe was then sterilized as in Example 2 (per FIG. 2) using steam and a temperature of 135° C. by controlling the inlet and outlet ball valves. The ball valves at the ends of the pipe were then closed, the pipe removed from the test station and cooled with water. A small amount of sterile water was introduced and the inside of the pipe rinsed with it for several minutes. The pipe was then opened and the water and scrapings from the side of the pipe taken for microbiological analysis.

Iron Related Bacteria = assay: MICkit microbiological testing of pipe water and scrapings, iron related bacteria; assay type: cell-based
Protocol: as §1, §2, §3, §4, §5, §6

Acid Producing Bacteria = assay: MICkit microbiological testing of pipe water and scrapings, acid producing bacteria; assay type: cell-based
Protocol: as §1, §2, §3, §4, §5, §6

[1] = tested on: Sulfate Reducing Bacteria; assay: MICkit microbiological testing of pipe water and scrapings, sulfate reducing bacteria; assay type: cell-based
Protocol: as §1, §2, §3, §4, §5, §6

[2] = tested on: aerobic bacteria (colony forming units); assay: Aerobic plate count of pipe water and scrapings; assay type: cell-based
Protocol: Microbiologically contaminated water was obtained from a “dead end” water feed-line to a fire protection system and was assayed microbiologically using the […] giving the following results after only 2 days of incubation at 35° C.: [table] The steam was allowed to slowly enter the pipe by regulating the input ball valve with the outlet ball valve open. Steam flowed through the pipe, heating it rapidly to near 100° C. The outlet ball valve was then nearly closed allowing the steam pressure in the pipe to increase. The temperature at the end of the pipe reached 135° C. and was kept there for five minutes. The inlet and outlet ball valves were closed and the pipe with the valves closed was removed and cooled in a stream of water. A small amount of sterile water (autoclaved at 121° C. for 15 minutes) was added to the sterilized pipe and the pipe raised, lowered and rotated to rinse the inside of the pipe system. The pipe was then opened and the water and scrapings from the side of the pipe were taken using sterile techniques for microbiological analysis. The drained pipe was then sterilized as in Example 2 (per FIG. 2) using steam and a temperature of 135° C. by controlling the inlet and outlet ball valves. The ball valves at the ends of the pipe were then closed, the pipe removed from the test station and cooled with water. A small amount of sterile water was introduced and the inside of the pipe rinsed with it for several minutes. The pipe was then opened and the water and scrapings from the side of the pipe taken for microbiological analysis.

[3] = Analysis of residual sodium hypochlorite in water standing in iron pipe; assay type: physicochemical; details: 50 ppm in potable tap water in iron pipe, ambient temperature, after 24 hours
Source text: The sterilized pipe from Example 2 was then filled with potable tap water containing 50 ppm sodium hypochlorite and allowed to stand at ambient temperature. The sodium hypochlorite, being an oxidizing agent, rapidly dissipated when in contact with the interior iron pipe surface.

[4] = Example 1, contaminated 1-inch sprinkler pipe, steam, pipe end 94° C., capped end, incubated three weeks at 35° C.
[5] = Example 1, steam repeated with outlet ball valve, pipe end 110° C., incubated three weeks at 35° C.
[6] = Example 2, new pipe infected with dead end water, steam 135° C. for five minutes, incubation 15 days
[7] = Example 4, chemically cleaned contaminated pipe, steam 135° C., after 15 days
[8] = Example 3, steam-sterilized pipe filled with potable tap water containing 50 ppm sodium hypochlorite, 24 hours plus seven days at ambient temperature
[9] = Example 5, sterilized pipe recontaminated 16 hours with dead end water, then tap water with 50 ppm sodium hypochlorite overnight, incubation 15 days

With `O` [steam] the LNB (Low Nutrient Bacteria; [4]) was “Negative”, the LNB (Low Nutrient Bacteria; [5]) was “Negative” and the LNB (Low Nutrient Bacteria; [6]) was “negative”. The LNB (Low Nutrient Bacteria; [7]) was “negative”, the IRB (Iron Related Bacteria; [4]) was “Negative” and the IRB (Iron Related Bacteria; [5]) was “Negative”. The IRB (Iron Related Bacteria; [6]) was “negative”, the IRB (Iron Related Bacteria; [7]) was “negative” and the APB (Acid Producing Bacteria; [4]) was “Negative”. The APB (Acid Producing Bacteria; [5]) was “Negative”, the APB (Acid Producing Bacteria; [6]) was “negative” and the APB (Acid Producing Bacteria; [7]) was “negative”. For the same molecule, the SRB [1, 4] was “Negative”, the SRB [1, 5] was “Negative” and the SRB [1, 6] was “negative”. The SRB [1, 7] was “negative”, the APC [2, 6] was < 1 colony forming units per mil and the APC [2, 7] was < 1 colony forming units per mil.

In the case of `OCl` [sodium hypochlorite, reference compound], the LNB (Low Nutrient Bacteria; [8]) is reported as “negative”, the LNB (Low Nutrient Bacteria; [9]) is reported as “positive” and the IRB (Iron Related Bacteria; [8]) is reported as “negative”. The IRB (Iron Related Bacteria; [9]) was “negative”, the APB (Acid Producing Bacteria; [8]) was “negative” and the APB (Acid Producing Bacteria; [9]) was “negative”. For the same molecule, the SRB [1, 8] was “negative”, the SRB [1, 9] was “negative” and the APC [2, 8] was < 1 colony forming units per mil. The APC [2, 9] was < 1 colony forming units per mil and the “sodium hypochlorite remaining in the water” value [3] was 0 ppm.
